Assay results taken from patent publication US7094600B2, “Screen for sodium channel modulators” (The Research Foundation of State University of New York, priority 2003, dated 2006).
Values joined by “and” are separate entries in the source; they are usually repeats but may differ in a detail not shown here. Equal entries are not always repeated. Where two headings read alike, the source gives them in different places.

How the values were obtained:
IFM/QQQ mutant channels = conditions: cited from earlier work
[1] = target: T1, hNav1.4-L443C/A444W Na+ channels (Homo sapiens, UniProt P35499, A444W/L443C); assay: Whole-cell patch clamp of hNav1.4-L443C/A444W mutant Na+ channels in stably transfected HEK293 cells; type: cell-based
T1 construct: full-length hNav1.4 cDNA inserted in the pRc/CMV vector; expressed in transfected cells; pRc/CMV vector
T1 sequence (P35499 whole entry L443C/A444W): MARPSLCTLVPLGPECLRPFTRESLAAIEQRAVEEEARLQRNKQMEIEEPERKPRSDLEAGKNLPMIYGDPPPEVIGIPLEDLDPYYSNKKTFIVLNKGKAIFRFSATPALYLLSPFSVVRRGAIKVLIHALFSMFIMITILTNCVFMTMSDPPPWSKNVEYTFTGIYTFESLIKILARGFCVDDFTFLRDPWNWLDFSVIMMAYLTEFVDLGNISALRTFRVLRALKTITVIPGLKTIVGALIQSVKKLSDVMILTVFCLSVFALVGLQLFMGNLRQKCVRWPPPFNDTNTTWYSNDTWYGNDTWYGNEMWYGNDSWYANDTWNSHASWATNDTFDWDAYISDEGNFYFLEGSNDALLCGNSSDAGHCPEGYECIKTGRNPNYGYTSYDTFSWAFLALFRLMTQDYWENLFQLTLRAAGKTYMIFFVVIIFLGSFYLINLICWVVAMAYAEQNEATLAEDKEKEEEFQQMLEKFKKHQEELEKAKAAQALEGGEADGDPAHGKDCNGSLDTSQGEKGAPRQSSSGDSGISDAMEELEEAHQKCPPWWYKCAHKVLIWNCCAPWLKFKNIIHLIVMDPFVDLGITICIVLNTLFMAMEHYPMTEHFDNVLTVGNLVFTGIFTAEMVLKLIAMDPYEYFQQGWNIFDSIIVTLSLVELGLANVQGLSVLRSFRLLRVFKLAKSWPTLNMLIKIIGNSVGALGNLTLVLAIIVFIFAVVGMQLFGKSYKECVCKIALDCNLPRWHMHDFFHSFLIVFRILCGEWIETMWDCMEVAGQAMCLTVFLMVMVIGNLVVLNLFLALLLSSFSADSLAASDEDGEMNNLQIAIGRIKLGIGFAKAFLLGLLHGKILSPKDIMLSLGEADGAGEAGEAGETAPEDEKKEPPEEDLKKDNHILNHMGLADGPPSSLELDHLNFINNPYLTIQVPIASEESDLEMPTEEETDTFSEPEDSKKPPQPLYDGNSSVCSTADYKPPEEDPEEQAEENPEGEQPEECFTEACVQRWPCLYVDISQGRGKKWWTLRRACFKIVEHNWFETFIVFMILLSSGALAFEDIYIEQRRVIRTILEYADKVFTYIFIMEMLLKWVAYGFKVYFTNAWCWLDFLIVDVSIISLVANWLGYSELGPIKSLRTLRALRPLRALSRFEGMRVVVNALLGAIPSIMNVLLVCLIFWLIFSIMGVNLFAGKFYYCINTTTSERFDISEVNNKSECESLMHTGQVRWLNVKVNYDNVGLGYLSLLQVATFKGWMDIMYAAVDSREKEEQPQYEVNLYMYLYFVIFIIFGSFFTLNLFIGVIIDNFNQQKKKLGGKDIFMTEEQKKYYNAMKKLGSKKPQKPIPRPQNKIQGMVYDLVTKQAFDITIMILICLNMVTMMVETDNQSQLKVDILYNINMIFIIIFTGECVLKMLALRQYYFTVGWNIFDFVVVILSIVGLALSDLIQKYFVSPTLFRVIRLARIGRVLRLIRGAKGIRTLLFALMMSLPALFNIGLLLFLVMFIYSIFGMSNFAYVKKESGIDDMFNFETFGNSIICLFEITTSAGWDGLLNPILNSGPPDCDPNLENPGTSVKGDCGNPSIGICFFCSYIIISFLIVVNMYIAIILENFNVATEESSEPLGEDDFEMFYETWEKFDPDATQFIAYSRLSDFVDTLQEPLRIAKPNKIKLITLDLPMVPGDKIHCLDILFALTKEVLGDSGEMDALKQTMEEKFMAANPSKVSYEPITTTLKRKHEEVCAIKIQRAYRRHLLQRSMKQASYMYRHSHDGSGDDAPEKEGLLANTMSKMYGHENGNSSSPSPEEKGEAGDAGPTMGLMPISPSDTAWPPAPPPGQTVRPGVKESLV

[2] = as antiarrhythmic agent; cited from earlier work
[3] = test system: pronase-treated Na+ channels; conditions: cited from earlier work
[4] = target: T2, rNav1.4 Na+ channels (wild-type) (Rattus norvegicus, UniProt P15390); assay: Whole-cell patch clamp of wild-type rNav1.4 Na+ currents in transfected HEK293t cells; type: cell-based; parameters: time constant of recovery from inactivated block / block of peak Na+ currents (resting state): dose or concentration left out as unconfirmed; conditions: for time for full recovery from flecainide block (dissociation): holding potential −140 mV, block developed after channel activation
T2 construct: expressed in transfected cells; host or cells: HEK293t, transient, calcium phosphate; pcDNA1/Amp vector
T2 sequence (P15390 whole entry): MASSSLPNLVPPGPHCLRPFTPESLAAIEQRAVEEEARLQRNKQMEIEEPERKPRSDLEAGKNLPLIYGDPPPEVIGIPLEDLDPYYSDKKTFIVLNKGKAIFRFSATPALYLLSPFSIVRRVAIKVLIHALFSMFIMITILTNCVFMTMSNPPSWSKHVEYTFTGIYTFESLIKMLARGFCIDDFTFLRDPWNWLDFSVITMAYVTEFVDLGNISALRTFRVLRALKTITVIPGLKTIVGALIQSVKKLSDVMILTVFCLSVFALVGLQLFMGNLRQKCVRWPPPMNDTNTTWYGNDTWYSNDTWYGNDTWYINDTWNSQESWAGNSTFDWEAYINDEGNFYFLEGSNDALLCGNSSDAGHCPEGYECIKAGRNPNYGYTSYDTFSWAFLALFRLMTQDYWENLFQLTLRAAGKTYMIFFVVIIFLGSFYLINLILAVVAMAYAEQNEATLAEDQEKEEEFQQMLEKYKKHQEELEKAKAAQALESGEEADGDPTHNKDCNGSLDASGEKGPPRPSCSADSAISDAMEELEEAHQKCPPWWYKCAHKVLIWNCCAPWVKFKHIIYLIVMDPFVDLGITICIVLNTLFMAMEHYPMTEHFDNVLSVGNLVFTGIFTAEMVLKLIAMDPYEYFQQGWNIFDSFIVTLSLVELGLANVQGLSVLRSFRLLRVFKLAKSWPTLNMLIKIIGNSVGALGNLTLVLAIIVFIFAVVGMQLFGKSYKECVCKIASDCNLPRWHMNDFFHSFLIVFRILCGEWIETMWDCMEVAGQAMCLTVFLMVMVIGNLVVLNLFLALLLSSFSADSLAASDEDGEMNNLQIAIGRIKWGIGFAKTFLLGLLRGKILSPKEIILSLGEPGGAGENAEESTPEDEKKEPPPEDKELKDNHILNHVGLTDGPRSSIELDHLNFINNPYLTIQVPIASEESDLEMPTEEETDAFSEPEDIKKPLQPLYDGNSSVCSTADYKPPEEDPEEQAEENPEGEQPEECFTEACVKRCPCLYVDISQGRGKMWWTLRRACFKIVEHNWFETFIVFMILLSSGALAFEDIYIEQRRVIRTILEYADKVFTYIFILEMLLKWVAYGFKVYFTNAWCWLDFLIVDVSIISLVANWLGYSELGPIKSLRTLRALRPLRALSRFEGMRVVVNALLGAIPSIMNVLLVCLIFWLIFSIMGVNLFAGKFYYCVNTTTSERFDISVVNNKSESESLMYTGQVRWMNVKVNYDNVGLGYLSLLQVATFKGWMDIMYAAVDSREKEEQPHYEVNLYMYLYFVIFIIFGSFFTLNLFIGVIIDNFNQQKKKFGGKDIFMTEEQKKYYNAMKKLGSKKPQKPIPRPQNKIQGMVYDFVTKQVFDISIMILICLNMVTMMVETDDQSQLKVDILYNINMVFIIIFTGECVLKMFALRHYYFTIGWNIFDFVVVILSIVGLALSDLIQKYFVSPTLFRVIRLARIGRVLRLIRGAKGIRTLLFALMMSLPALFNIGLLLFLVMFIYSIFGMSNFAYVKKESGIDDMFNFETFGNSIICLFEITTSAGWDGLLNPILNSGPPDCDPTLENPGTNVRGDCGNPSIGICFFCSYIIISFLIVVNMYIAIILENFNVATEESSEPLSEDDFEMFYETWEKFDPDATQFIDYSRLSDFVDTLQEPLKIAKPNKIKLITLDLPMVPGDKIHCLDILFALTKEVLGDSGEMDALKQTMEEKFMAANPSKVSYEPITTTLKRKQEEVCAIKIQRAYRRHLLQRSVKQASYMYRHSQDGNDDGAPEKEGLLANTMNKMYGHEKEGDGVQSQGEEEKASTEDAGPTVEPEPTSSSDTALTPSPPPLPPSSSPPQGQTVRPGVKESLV
T2 sequence (Q00954 19-218 partner): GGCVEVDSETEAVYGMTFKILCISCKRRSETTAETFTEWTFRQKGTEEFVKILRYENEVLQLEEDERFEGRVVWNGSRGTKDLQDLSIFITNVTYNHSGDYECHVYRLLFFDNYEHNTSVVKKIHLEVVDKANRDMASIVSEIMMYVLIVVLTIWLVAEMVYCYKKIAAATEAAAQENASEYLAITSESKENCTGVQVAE

[5] = target: T3, rNav1.4-L435W/L437C/A438W mutant channels (Rattus norvegicus, UniProt P15390, A438W/L435W/L437C); assay: Whole-cell patch clamp of inactivation-deficient rNav1.4-L435W/L437C/A438W mutant channels in HEK293t cells; type: cell-based
T3 construct: expressed in transfected cells; host or cells: HEK293t, transient, calcium phosphate; pcDNA1/Amp vector
T3 sequence (P15390 whole entry L435W/L437C/A438W): as the sequence (P15390 whole entry) above, with L435W, L437C, A438W counted along it
T3 sequence (Q00954 19-218 partner): as the sequence (Q00954 19-218 partner) above

[6] = 10 μM, external, 100-ms test pulse at +50 mV
[7] = 30 μM flecainide, 10 s conditioning prepulses -180 to -10 mV, test +30 mV

CC(C)N(CCC(C(N)=O)(c1ccccc1)c1ccccn1)C(C)C (stereo not drawn) [disopyramide]
open-channel block in IFM/QQQ mutant channels (IFM/QQQ mutant channels): weak open-channel block

Cc1cccc(C)c1OCC(C)N (stereo not drawn) [mexiletine]
block of persistent late Na+ currents [1, 6]: strong block | therapeutic plasma concentration [2]: 2.8 to 11.2 µM

CC[N+](CC)(CC)CC(=O)Nc1c(C)cccc1C [QX-314]
block of inactivation-deficient Na+ currents [3]: does not block

batrachotoxin [BTX]
activation threshold of BTX-modified Na+ currents ([1]; 5 μM BTX in pipette solution): −80 mV | effect on fast and slow inactivation ([1]; 5 μM BTX in pipette solution): completely eliminates the fast and the slow inactivation | shift of activation threshold ([1]; 5 μM BTX in pipette solution, after 400 repetitive pulses at +50 mV, 1 Hz): ~−40 mV

CCCNC[C@H](O)COc1ccccc1C(=O)CCc1ccccc1.Cl [(S)-propafenone, (S)-Propafenone-HCl]
inhibition of peak Na+ currents ([1]; 10 μM, external): also inhibited, but to a lesser extent | block of persistent late Na+ currents [1, 6]: potently blocks

O=C(NCC1CCCCN1)c1cc(OCC(F)(F)F)ccc1OCC(F)(F)F (stereo not drawn) [flecainide]
open-channel block in IFM/QQQ mutant channels (IFM/QQQ mutant channels): weak open-channel block | IC50 [4]: ~400 µM | time constant of recovery from inactivated block [4]: > 100 s | V0.5 of Boltzmann fit, voltage dependence of flecainide block [4, 7]: −57.3±2.7 mV | kE (slope factor) of Boltzmann fit, voltage dependence of flecainide block [4, 7]: 17.6±2.1 mV | time for flecainide block to reach steady state ([4]; 30 mM flecainide, +50 mV pulses at 30-s interval): 5 to 7 min | inhibition at 30000 µM ([4]; HEK-293T, read-out: peak currents inhibited after flecainide block reached steady state): ~50% | time constant of development of the inactivated block ([4]; at −50 mV): 10.9 ± 1.3 s | block of peak Na+ currents (resting state) ([4]; cell not stimulated repetitively in 1,000 s): ~20% | time for full recovery from flecainide block (dissociation) [4]: ≥ 1,000 s | time for full recovery from flecainide block (dissociation) ([4]; listed as Flecainide): up to 10,000 s | additional use-dependent block ([4]; repetitive pulses at 5 Hz for 60 pulses): ~50% | difference between the high and low flecainide affinities ([4]; −20 mV vs −140 mV conditioning): less than 3 fold | block of persistent late Na+ currents [1, 6]: strong block | time to steady state block at each concentration ([5]; 140 ms test pulse to +30 mV every 30 seconds, 0.1 to 30 μM): ≤ 5 min | block of the maintained Na+ currents ([5]; at +50 mV, 0.1 to 30 μM flecainide): strong time-dependent block | time constant of recovery from the open channel block ([5]; at −140 mV): 11.2 s | IC50 ([5]; conditioning pulse −50 mV, 10 s, read-out: IC50 with a conditioning pulse at −50 mV for 10 s (estimated block at the peak current)): 4.1 ± 0.1 µM | Kd ([5]; from off-rate/on-rate, read-out: calculated dissociation constant (open channel)): 0.81 µM | difference of resting and open channel affinities ([5]; inactivation-deficient mutant channels): ~500 fold | IC50 ([5]; open channel, read-out: IC50 for the open block (estimated block at the end of the pulse)): 0.61 ± 0.07 µM | IC50 ([5]; resting channel, holding −140 mV, read-out: IC50 for the resting block (estimated block at the peak current)): 208 µM and 307 µM | on-rate constant with the open channel ([5]; test pulse +30 mV, slope of 1/τ vs concentration): 1.49e+07 M⁻¹ s⁻¹ | off-rate constant with the open channel ([5]; test pulse +30 mV, y-intercept of 1/τ vs concentration): 12.2 s⁻¹

NC1=N[C@H](O)[C@H]2[C@H]3O[C@]4(O)O[C@@H]([C@@H](O)[C@@]2(N1)[C@@H]4O)[C@]3(O)CO [TTX, Tetrodotoxin]
Hill coefficient [1]: 1.09±0.04 | time-dependent block by TTX [1]: no evidence of a time-dependent block

CCCCc1oc2ccccc2c1C(=O)c1cc(I)c(OCCN(CC)CC)c(I)c1 [amiodarone]
block of persistent late Na+ currents [1]: Most, if not all, persistent late currents were inhibited | inhibition of peak Na+ currents [1]: also reduced slowly, but again to a lesser extent | time to steady-state block of late Na+ currents (wash-in) [1]: 15 min | wash-out of block [1]: slow and incomplete
